Measurements: paper PMC8156053, “Synthesis, Characterization, and In Vitro Insulin-Mimetic Activity Evaluation of Valine Schiff Base Coordination Compounds of Oxidovanadium(V)” (Biomedicines, 2021)
Where “and” joins values, the source holds several entries; their conditions need not be identical. Equal values may be shown once.

Experiments:
HepG2 cells = experiment: Cytotoxicity, XTT cell viability assay; assay type: cell-based, human; details: 24 h
Procedure: HepG2 cell line was purchased from American Type Culture Collection. The cells were grown in Dulbecco’s Modified Eagle’s Medium (DMEM) with 4.5‰ glucose, supplemented with 10% (v/v) fetal bovine serum, 100 units/mL penicillin, and 100 µg/mL streptomycin (complete medium). HepG2 cells were maintained at 37 °C in a 5% carbon dioxide incubator and were periodically sub-cultivated.
To determine the cytotoxic concentration of the synthesized oxidovanadium(V) complexes and V^IVOSO4•3H2O, HepG2 cells were incubated with increasing molar concentrations (1 × 10^−5 ÷ 3 × 10^−4 M) of compounds.
HepG2 cells (1.5 × 10^4 cells/mL) were seeded in complete medium on a 96-well cell culture plate and were incubated at 37 b0C, as previously described. […] Control cells were represented by cells exposed to free-complete medium and medium supplemented with 0.15% DMSO. The cytotoxicity of tested compounds on the HepG2 cell line was assessed by the 2, 3-bis-(2-methoxy-4-nitro-5-sulfophenyl)-2H-tetrazolium-5-carboxanilide) (XTT) cell viability assay. The method is based on the reduction of XTT, in the presence of phenazine methosulfate, to a water-soluble orange formazan derivative. The absorbance of the sample, due to the intensity of the orange color, which is proportional to the number of viable cells, was recorded at 450 nm using the Tecan Infinite M200Pro spectrophotometer.

insulin receptor (INS R) = experiment: Quantification of phosphorylated insulin receptor by immunoblotting in HepG2 cells; assay type: cell-based, human; details: 10^−7 M insulin
Procedure: To investigate the effect of oxidovanadium(V) complexes on insulin receptor (INS R) phosphorylation, HepG2 cells (1.0 × 10^5 cells/mL) were treated with 2.5 × 10^−5 M oxidovanadium(V) compounds, V^IVOSO4•3H2O, and 10^−7 M insulin (positive control) for 3 and 24 h, respectively. As negative controls, cells exposed to free-complete medium (negative control for treatment with V^IVOSO4•3H2O and insulin) and cells exposed to 0.0125% DMSO (negative control for treatment with complexes) were used.
After cell lysis, 50 µg of total protein was denatured by adding 1/5th volume of Laemmli’s buffer 6× (15% SDS, 0.01% bromophenol blue, 74% glycerol, 7.5 × 10^−2 M Tris, pH 6.8, 1/8th volume of 2-mercaptoethanol) followed by heating at 95 °C for 5 min. […]
The separated proteins were transferred (using a Trans-Blot Semi-Dry transfer cell, Bio-Rad) to a nitrocellulose membrane (0.45 µm, Bio-Rad), blocked with 1% BSA for 1 hour, and incubated overnight with the primary antibody: Mouse anti-insulin receptor-β chain (INS R-β) (1:500, Santa Cruz Biotechnology cat. No. sc-57342), rabbit anti-phosphorylated INS R-Y1162/3 (pINS R, 1:400, R&D Systems, Minneapolis, MN, USA cat. No. AF2507) and mouse anti-β-actin (1/2000, Bio-Rad cat. no. MCA5775GA). […] The data were expressed as the mean ± SD of two individual experiments performed in duplicate.

[1] = molecular target: T1, bovine serum albumin (BSA) (Bos taurus, UniProt P02769); experiment: Fluorescence quenching of serum albumin (Stern–Volmer); assay type: binding; details: for decrease of BSA fluorescence intensity: highest tested concentration (2.5 × 10^−5 M), 2 × 10^−6 M BSA, PBS pH 7.4, vs free BSA and BSA with DMSO; for Stern–Volmer constant KSV: BSA 2 × 10^−6 M, PBS pH 7.4, emission 347 nm; for collision quenching constant Kq (Kq = Ksv/τ0): τ0 = 10^−8 s
T1 construct: α-Amylase from porcine pancreas, bovine serum albumin (BSA); purchased SIGMA-Aldrich (Merck KGaA, Darmstadt, Germany)
T1 sequence (P02769 25-607): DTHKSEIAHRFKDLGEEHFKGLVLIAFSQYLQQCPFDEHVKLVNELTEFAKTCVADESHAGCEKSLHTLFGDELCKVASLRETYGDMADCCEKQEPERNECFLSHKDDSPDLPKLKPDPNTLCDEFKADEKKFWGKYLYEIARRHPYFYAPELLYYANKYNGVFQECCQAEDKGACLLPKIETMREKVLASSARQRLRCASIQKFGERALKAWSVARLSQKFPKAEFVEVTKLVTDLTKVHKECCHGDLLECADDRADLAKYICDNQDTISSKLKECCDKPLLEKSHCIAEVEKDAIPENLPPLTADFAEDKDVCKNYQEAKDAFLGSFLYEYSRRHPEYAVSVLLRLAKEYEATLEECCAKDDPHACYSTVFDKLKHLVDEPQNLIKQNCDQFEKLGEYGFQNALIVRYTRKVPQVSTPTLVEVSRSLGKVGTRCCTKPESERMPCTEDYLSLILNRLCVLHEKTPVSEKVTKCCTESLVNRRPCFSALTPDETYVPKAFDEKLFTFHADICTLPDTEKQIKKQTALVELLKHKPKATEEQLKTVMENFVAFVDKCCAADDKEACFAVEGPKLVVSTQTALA
Procedure: The capacity of the oxidovanadium(V) compounds to bind to bovine serum albumin (BSA) was monitored by fluorescence quenching assay. A solution of 2 × 10^−6 M BSA in PBS, pH 7.4, was incubated for 2 h at 37 b0C with each vanadium-based compound or V^IVOSO4•3H2O at increasing molar concentrations (1 × 10^−6 ÷ 2.5 × 10^−5 M) or with 0.025% DMSO (negative control). The samples were excited at 295 nm and the emission spectra of all BSA solutions were recorded in the 300 ÷ 450 nm range using a JASCO FP-750 spectrofluorometer. The final spectrum was the average of three recordings measured at a scanning speed of 250 nm/minute, with an excitation and emission bandwidth of 5 nm. […] In addition, by applying the Stern–Volmer equation [23], the mechanism by which the complexes bind to BSA was investigated as it is described in the Supplementary material.
The Stern–Volmer e quation
The Stern–Vol mer equation [1] is:
I0/I= 1+ Kqτ0[Q] = 1 + Ksv[Q], where: I0 = the fluor escence intensities of fr ee BS A solution at 347 nm, I = the fluorescence intensities of BS A solution at 347 nm in the presence of vanadium […]
[Q] = the concentration of vanadium co mplexes, τ0 = the fluorescence l ifetime of the biopolymer (10-8 s), Kq = the coll isi on quenching constant;
Ksv = the Stern-Volmer constant.
Stern–Vol mer plots of the B SA fluorescence quenching in t he prese nce of each compou nd are represented in Fig. S4, together with the ir linear best fit in which y = I0/I, x = [Q], a = slope of the li ne, […]
The fluorescence intensitie s are the average of three recordings measured at a scanning speed of 250 nm/min, with an excitation and emissio n bandwidth of 5 nm.

[2] = molecular target: T2, α-Amylase from porcine pancreas (Sus scrofa, UniProt P00690); experiment: Inhibition of the α-amylase activity (DNS/starch); assay type: biochemical; details: 1.8 × 10^−2 and 2.0 × 10^−2 M, compared to DMSO
T2 construct: α-Amylase from porcine pancreas, bovine serum albumin (BSA); purchased SIGMA-Aldrich (Merck KGaA, Darmstadt, Germany); host or cells: porcine pancreas
T2 sequence (P00690 16-511): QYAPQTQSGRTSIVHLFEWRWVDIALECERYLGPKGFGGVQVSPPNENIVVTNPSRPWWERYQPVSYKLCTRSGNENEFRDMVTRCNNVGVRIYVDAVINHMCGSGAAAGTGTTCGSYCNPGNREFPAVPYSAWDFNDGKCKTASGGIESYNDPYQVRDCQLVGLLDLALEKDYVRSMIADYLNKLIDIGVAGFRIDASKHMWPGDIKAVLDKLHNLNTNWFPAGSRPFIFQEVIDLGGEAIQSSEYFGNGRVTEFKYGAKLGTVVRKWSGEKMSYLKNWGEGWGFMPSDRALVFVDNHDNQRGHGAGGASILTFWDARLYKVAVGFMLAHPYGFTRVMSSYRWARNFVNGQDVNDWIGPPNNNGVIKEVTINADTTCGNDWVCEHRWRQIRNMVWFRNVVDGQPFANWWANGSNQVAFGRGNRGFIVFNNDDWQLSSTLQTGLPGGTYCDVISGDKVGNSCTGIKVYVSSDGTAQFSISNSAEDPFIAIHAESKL
Procedure: The capacity of the obtained complexes to inhibit pancreatic α-amylase activity in vitro was analyzed using a slightly modified procedure of the one described by Apostolidis and Lee. Thus, 100 µL solution of complexes (1.8 ÷ 2.5 × 10^−2 M), 2.5 × 10^−2 M V^IVOSO4•3H2O, 2.5 × 10^−2 M acarbose (positive control) and 12.5% DMSO (negative control) in reaction buffer (2 × 10^−2 M sodium phosphate, pH 6.9 with 6 × 10^−3 M sodium chloride) were pre-exposed to 100 µL of 20 units/mL α-amylase in reaction buffer for 10 min at room temperature. Then, 100 µL of 1% starch solution in reaction buffer were added and the samples were incubated at room temperature for 10 min. The reaction was stopped with 200 µL of 3, 5-dinitrosalicylic acid (DNS). The samples were heated at 90 ÷ 95 °C for 10 min and then left to cool down at room temperature. The reaction mixture was further diluted with 4 mL of distilled water. As a control for the inhibitory effect of acarbose, a sample containing starch and enzyme was used. The yellow/orange color intensity was measured using the microplate reader TECAN Infinite M200Pro at 540 nm. The experiment was performed in triplicate. The blank (sample without starch and enzyme) absorbance was subtracted from the absorbance of all samples and the activity of α-amylase was expressed as % of DMSO (negative control).

[3] = Solution stability over time in PBS by UV-Vis spectrophotometry; assay type: physicochemical; details: for decrease in the intensity of λmax: 2 × 10^−4 M in PBS pH 7.4, 37 °C; for stability in PBS: physiological pH (7.4), 37 °C
Procedure: Electronic absorption spectra for the 2 × 10^−4 M solution of the four oxidovanadium(V) complexes in PBS at pH 7.4 were recorded outright on the prepared solutions (designated as T 0 h in the histograms), after the preparation at 1 h (T 1 h), 3 h (T 3 h), 6 h (T 6 h), 9 h (T 9 h), and 24 h (T 24 h), respectively. The prepared solutions were incubated at 37 °C, and the readings were performed over the entire 500 ÷ 230 nm range using a microplate reader spectrophotometer TECAN Infinite M200Pro and a 96-well UV micro test plate. The data were expressed as the average ± SD of three independent measurements.

[4] = ratio of BSA quenching constants

Compound	reduction of HepG2 viability (HepG2 cells; 1 × 10^−5 M, compared to DMSO treated cells) [%]	increase of INS R phosphorylation (insulin receptor (INS R); 3 h, HepG2, compared to cells exposed to free-complete medium)	INS R phosphorylation (insulin receptor (INS R); 24 h, HepG2, compared to control cells)	reduction of HepG2 viability (HepG2 cells; highest concentration (3 × 10^−4 M), compared to control cells) [%]	decrease of BSA fluorescence intensity [1]	inhibitory effect on α-amylase activity [2]	decrease in the intensity of λmax ([3]; 1 h vs T 0 h)	decrease in the intensity of λmax ([3]; 3 h vs T 0 h)	decrease in the intensity of λmax ([3]; 6 h vs T 0 h)	decrease in the intensity of λmax ([3]; 9 h vs T 0 h)	decrease in the intensity of λmax ([3]; 24 h vs T 0 h)	stability in PBS [3]	Stern–Volmer constant KSV [1] [M⁻¹]	Kq(1a)/Kq(1b) [1, 4]	collision quenching constant Kq (Kq = Ksv/τ0) [1] [M⁻¹ s⁻¹]	increase of α-amylase enzyme activity [2] [%]	Kq(2a)/Kq(1a) [1, 4]	Kq(2a)/Kq(2b) [1, 4]	Kq(2b)/Kq(1b) [1, 4]
N.N.[Cl][Pt][Cl] [cisplatin]	44																		
insulin: human recombinant insulin, positive control for INS R phosphorylation		about 80%	reduced and insignificant																
O.O.O.O=S(=O)([O-])[O-].[O]=[V+2] [V^IVOSO4•3H2O, reference compound]				34	does not reduce the fluorescence intensity of BSA														
CC(C)[C@H]1N=Cc2ccccc2[O][V](=[O])([O][V]2(=[O])[O]C(=O)[C@@H](C(C)C)N=Cc3ccccc3[O]2)[O]C1=O.O (stereo partly shown) [1a, [{V^VO(R-salval)(H2O)}(μ2-O){V^VO(R-salval)}]]					about 60%	more than 18%	about 10%	about 25%	about 40%	about 50%	about 70%	stable in PBS at physiological pH and temperature for up to three hours	80700	1.34	8.07e+12				
CO.CO.COc1cccc2c1[O][V](=[O])([O][V]1(=[O])[O]C(=O)[C@@H](C(C)C)N=Cc3cccc(OC)c3[O]1)[O]C(=O)[C@@H](C(C)C)N=C2 (stereo partly shown) [2a, [{V^VO(R-vanval)(CH3OH)}2(μ2-O)]]					~80%		less than 10%	less than 20%	~20%	~30%	~30%	stable in PBS at physiological pH and temperature for up to three hours	171800		1.718e+13	35	2 and 2.12	0.69	
CC(C)[C@H](N=Cc1ccccc1[O-])C(=O)[O-].CC(C)[C@H](N=Cc1ccccc1[O-])C(=O)[O-].O.[O]=[V+2][O][V+2]=[O] [1b, [{V^VO(S-salval)(H2O)}(μ2-O){V^VO(S-salval)}]]					about 60%	more than 18%	about 10%	about 25%	about 40%	about 50%	about 70%	stable in PBS at physiological pH and temperature for up to three hours	60100		6.01e+12				
CO.CO.COc1cccc(C=N[C@H](C(=O)[O-])C(C)C)c1[O-].COc1cccc(C=N[C@H](C(=O)[O-])C(C)C)c1[O-].[O]=[V+2][O][V+2]=[O] [2b, [{V^VO(S-vanval)(CH3OH)}2(μ2-O)]]					~80%		less than 10%	less than 20%	~20%	~30%	~30%	stable in PBS at physiological pH and temperature for up to three hours	248900		2.489e+13	35			4 and 4.14
